The values that follow come from US20020082254A1, “Compounds for treating disorders where a decreased level of plasma FFA is desired” (priority 2000, published 2002).

The target of one assay is T1, Lipoprotein lipase (LPL) (Bos taurus, UniProt P11151).
T1 construct: Dr. Gunilla Olivecrona, Umea University (gift)
T1 sequence (P11151 29-478): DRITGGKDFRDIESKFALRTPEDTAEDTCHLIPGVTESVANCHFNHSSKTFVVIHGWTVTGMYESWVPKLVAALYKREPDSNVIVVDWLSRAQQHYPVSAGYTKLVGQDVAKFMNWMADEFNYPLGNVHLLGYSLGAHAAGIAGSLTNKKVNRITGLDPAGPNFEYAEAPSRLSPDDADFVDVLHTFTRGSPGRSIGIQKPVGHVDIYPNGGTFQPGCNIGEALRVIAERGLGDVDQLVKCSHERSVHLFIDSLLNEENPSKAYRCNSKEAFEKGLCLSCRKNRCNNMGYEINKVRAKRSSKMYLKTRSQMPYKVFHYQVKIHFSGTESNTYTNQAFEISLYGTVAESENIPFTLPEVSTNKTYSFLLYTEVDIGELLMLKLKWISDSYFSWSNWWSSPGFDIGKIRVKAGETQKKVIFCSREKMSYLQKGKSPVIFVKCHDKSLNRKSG
Briefly: Lipoprotein lipase (LPL) inhibition assay, 3H-triolein/intralipid substrate. Type of assay: biochemical. As to conditions: read-out: LPL inhibition (% inh. at 50 μM). The text has this:
Lipoprotein Lipase (LPL) [Classified as EC 3.1.1.34 in accordance with the Recommendations of the Nomenclature Committee of the International Union of Biochemistry and Molecular Biology (available on the World Wide Web at the following address: http://www.chem.qmw.ac.uk/iubmb/enzyme/)]
Materials. The lipoprotein lipase employed was obtained from Dr. Gunilla Olivecrona of Umea University, Sweden. ^3H-triolein (TO) from Amersham, Buckinghamshire, U.K., cat No. TRA191; 5-20 Ci/mmol dissolved in toluene. Intralipid is from Kabi-Fresenius). Apo CII was obtained from PMSF-treated plasma from overnight fasted rats. All other reagents are of commercial grade and obtained from various commercial sources.
Methods. The preparation of the substrate is as follows:
25 μl of ^3H-Triolein evaporated under a gentle stream of N2 in a 27° C. room in 4 ml chromacol glass followed by the addition of 1 ml 10% intralipid. This is mixed and sonicated on ice for 5 minutes (50% pulse mode). This can be kept for 1 week at 4° C.
100 μl assay medium (0.3M Tris-Cl, 0.2M NaCl, 0.2 mg heparin/ml and 120 mg BSA/ml (fraction V, Sigma no. 3401, pH 8.5))
All mixed in a 13×100 mm glass tube and incubated for at least 5 minutes.
2. Add 5 μl LPL (of a solution containing 500 mU/mg)
Mix and incubate for 30 minutes at 25° C.
3. The reaction is stopped with 3.25 ml of a solution containing Methanol:chloroform:heptan 10:9:7. Add 1.05 ml buffer (100 mM Boric acid, 100 mM potassium carbonate pH 10.5) and mix 10 seconds per vial.
5. Take 1 ml of the upper phase+10 ml scintillation fluid and mix
6. Scintillation count for 5 minutes per vial.

The next assay addresses T2, Hepatic lipase (HL) (Homo sapiens, UniProt P11150).
T2 sequence (P11150 23-499): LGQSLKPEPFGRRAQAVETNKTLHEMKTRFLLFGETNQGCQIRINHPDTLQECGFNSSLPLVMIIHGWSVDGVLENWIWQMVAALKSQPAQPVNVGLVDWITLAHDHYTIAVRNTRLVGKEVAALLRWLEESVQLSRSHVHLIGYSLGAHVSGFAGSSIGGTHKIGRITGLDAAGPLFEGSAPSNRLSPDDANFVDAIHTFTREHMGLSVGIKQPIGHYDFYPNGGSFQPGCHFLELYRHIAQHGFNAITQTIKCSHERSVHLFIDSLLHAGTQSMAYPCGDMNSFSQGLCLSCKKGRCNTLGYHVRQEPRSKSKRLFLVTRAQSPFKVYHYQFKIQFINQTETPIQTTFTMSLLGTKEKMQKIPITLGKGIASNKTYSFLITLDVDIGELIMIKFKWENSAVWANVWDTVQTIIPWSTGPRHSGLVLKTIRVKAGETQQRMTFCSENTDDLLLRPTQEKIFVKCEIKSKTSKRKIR
Kind of assay: Hepatic lipase (HL) inhibition assay, 3H-triolein substrate. Type of assay: biochemical. The settings on record: read-out: HL inhibition (% inh. at 50 μM). From the text: Hepatic Lipase (HL) [classified as a triacylglycerol lipase, EC 3.1.1.3, in accordance with the Recommendations of the Nomenclature Committee of the International Union of Biochemistry and Molecular Biology (available on the World Wide Web at the following address: http://www.chem.qmw.ac.uk/iubmb/enzyme/)]
Materials. The hepatic lipase employed was obtained from Dr. Howard Wong of the University of California at Los Angeles (UCLA), USA, or produced and purified using the methods and a cell line provided by Dr. Wong's laboratory. ^3H-triolein (TO) from Amersham, Buckinghamshire, U.K., cat No. TRA191; 5-20 Ci/mmol dissolved in toluene and triolein (Sigma, Cat. No. T-1740). All other reagents are of commercial grade and obtained from various commercial sources.
50 μl TO in a 20 ml scintillation vial and evaporate with N2 for 5 minutes.
Add 1 ml 10% gum arabic and 1.25 ml Tris-Cl pH 8.5 and 2 ml MilliQ water.
Sonicate, on ice, 16 times for 30 seconds with a 30-second interval between cycles.
Add 2.5 ml of 5 M NaCl+2.5 ml BSA (10% in Milli Q, pH 8)+3.25 ml Milli Q
Total volume: 12.5 ml (for 80 reactions )
If an inhibitor is going to be used, it should be incubated with the 50 μl HL (of a 125 mU/ml solution) for 70 minutes at 25° C. A 5 μl aliquot from the incubated 50 μl is added to 150 μl assay mix+45 μl Milli Q™ water and mixed.
Incubate for exactly 30 minutes at 25° C.
Stop the reaction with Methanol:chloroform:heptane 10:9:7: 3.25 ml/vial, mix; then add 1.05 ml buffer (100 mM boric acid, 100 mM potassium carbonate pH 10.5), mix for 10 seconds per vial.
Centrifuge for 20 min/2000 rpm
Take 1 ml of the upper phase+10 ml scintillation fluid and mix by shaking by hand.
Scintillation count for 5 minutes per vial.

Each structure is given as a SMILES string.

Broadly, the inhibition is the percentage by which the read-out fell short of the control.

In the case of `CC1Cc2ccccc2CN1NC(=O)Oc1ccc(Cl)cc1` (stereo not drawn) [Example 23, (3-Methyl-3,4-dihydro-1H-isoquinolin-2-yl)-carbamic Acid 4-chloro-phenyl Ester], the inhibition at 50 µM at Lipoprotein lipase (LPL) and at Hepatic lipase (HL) was 4% in each case.
Take `CC(C)(C)OC(=O)Nc1ccc(OC(=O)NN2CCc3ccccc3C2)cc1` [Example 17, (3,4-Dihydro-1H-isoquinolin-2-yl)-carbamic Acid 4-tert-butoxycarbonylamino-phenyl Ester]: the results for the inhibition at 50 µM on Lipoprotein lipase (LPL) and at Hepatic lipase (HL) were 0% and 3%, respectively.
As for `O=C(NN1CCc2ccccc2C1)Oc1ccc(Cl)cc1` [Example 6, (3,4-Dihydro-1H-isoquinolin-2-yl)-carbamic acid 4-chloro-phenyl Ester], the inhibition at 50 µM at Lipoprotein lipase (LPL) stood at 0%; at Hepatic lipase (HL) it was 6%.
